Laboratory results: article PMC8727363, “Therapeutic Effect of Novel Cyanopyrrolidine-Based Prolyl Oligopeptidase Inhibitors in Rat Models of Amnesia” (Frontiers in Chemistry, 2021)
“And” between values parts separate entries of the source, which are not always exact repeats. Equal values may be shown once. Values belong to the molecule of their own block, whether it stands above or below them.

Assays:
[1] = design: method as in Jalkanen et al., 2011a; Jalkanen et al., 2014; conditions: mouse and rat, ref Jalkanen et al., 2011a, 2014; cited from earlier work
[2] = test system: scopolamine-induced amnesia; assay: Scopolamine-induced amnesia of conditioned passive avoidance reflex (CPAR); format: in vivo, rat; conditions: for CPAR retention time, scopolamine-induced amnesia: doses 1 and 2 mg/kg i.p., vs scopolamine only
Description: (§1) The development of CPAR was performed on a standard passive avoidance device from Lafayette Instrument Co. (United States). The device consists of a small platform located at a distance of 1 m from the floor, illuminated by a special lamp, and a dark chamber with an electrode floor. During learning, a rat was placed on the small platform in front of the entrance to the dark chamber. Immediately after entering the dark chamber, the rat received a painful stimulation from an electric current of 0.6 mA through the electrode floor lasting 10 s or until the rat ran out of the chamber (learning). […] If the rat entered the dark chamber, the training was repeated. A test for the refiex reproduction was performed after 24 h. In this case, the rat was placed on a lighted area, and step-through latency time (STL) of its entry into the dark chamber was recorded. The observation time was 3 min. The criterion for refiex reproduction was considered to be the STL of entry into the dark box.
Experiments were performed using two rat models of amnesia. In the first model, effects of POP inhibitors on scopolamine-induced amnesia were studied. The series included eighteen groups of animals (137 rats). Rats in the negative control group (group 1, n = 8) received 2 ml of vehicle (physiological saline solution containing 1% Tween 80) i.p. 40 min before the CPAR learning. Rats in the non-treated group (group 2, n = 7) received scopolamine (1 mg/kg, i.p. in 2 ml of vehicle) 20 min before the CPAR learning. […].

[3] = target: T1, POP isolated from rat brain (Rattus norvegicus, UniProt O70196); assay: POP inhibition assay (release of AMC from Cbz-Ala-Pro-AMC); format: biochemical; conditions: substrate Cbz-Ala-Pro-AMC 20 μM, 30 min at 37°C, pH 7.5, read-out: IC50, POP inhibitory activity
T1 construct: the resulting POP preparation was a homogeneous monomer with molecular weight of 75 kDa; from tissue; host or cells: rat brain
T1 sequence (O70196 1-710): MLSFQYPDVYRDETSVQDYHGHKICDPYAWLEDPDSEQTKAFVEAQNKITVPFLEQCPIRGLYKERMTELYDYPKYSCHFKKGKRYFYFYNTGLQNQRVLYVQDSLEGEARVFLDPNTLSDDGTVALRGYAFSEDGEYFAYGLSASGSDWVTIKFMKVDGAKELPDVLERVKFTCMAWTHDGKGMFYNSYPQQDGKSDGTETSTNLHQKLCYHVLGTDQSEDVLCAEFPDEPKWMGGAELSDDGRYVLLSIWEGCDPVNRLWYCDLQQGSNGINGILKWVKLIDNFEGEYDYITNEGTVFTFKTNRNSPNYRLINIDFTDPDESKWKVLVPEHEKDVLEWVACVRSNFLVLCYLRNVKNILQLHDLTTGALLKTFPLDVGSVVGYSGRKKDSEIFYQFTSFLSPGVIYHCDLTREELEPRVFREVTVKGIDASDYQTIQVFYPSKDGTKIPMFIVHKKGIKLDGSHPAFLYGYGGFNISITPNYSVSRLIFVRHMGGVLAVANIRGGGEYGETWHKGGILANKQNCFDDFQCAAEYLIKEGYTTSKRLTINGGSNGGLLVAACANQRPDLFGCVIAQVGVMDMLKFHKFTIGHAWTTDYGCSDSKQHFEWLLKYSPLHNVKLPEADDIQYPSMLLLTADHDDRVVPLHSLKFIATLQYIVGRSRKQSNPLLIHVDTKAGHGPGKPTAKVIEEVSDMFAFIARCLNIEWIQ
Description: Briefly, rat brain homogenate was precipitated with ammonium sulfate, followed by ion exchange chromatography on DEAE-Sephadex A-50, gel chromatography on Sephadex G-75, and high-performance liquid chromatography on a MonoQ column using FPLC. […] Purified POP was concentrated by ultrafiltration and stored at −80°C.
The reaction was initiated by addition of the substrate (20 μM) in a final reaction volume of 2 ml. The incubation mixture consisted of 50 μl of the enzyme preparation in 20 mM Tris-HCl buffer (pH 7.5) with 1 mM EDTA, 1 mM dithiothreitol, and 0.1% NP–40; 50 μl of 1 mg/ml substrate solution in DMSO; and 1.9 ml of Tris-HCl buffer. […] After a 30-min incubation at 37°C, the reaction was stopped by addition of 1 ml of acetate buffer (pH 4.0). The AMC concentration was determined on an LS–5B spectrofluorometer (Perkin–Elmer, United States) with excitation and emission wavelengths of 380 and 460 nm, respectively.

MES-induced amnesia = MES-induced amnesia of conditioned passive avoidance reflex (CPAR); format: in vivo; conditions: rat; for Antiamnesic activity, MES-induced amnesia, 1 mg/kg: comparable with piracetam 300 mg/kg; for Antiamnesic activity, MES-induced amnesia, 1 and 2 mg/kg: doses of 1 and 2 mg/kg; for Potency in comparison with piracetam, MES-induced amnesia: vs piracetam 300 mg/kg
Description: as §1
In the second model, effects of POP inhibitors on MES-induced amnesia were studied. The series included fifteen groups of animals (110 rats). Rats in the negative control group (group 1, n = 8) received 2 ml of vehicle (physiological saline solution containing 1% Tween 80) i.p. 30 min before the CPAR learning. Rats in the positive control group (group 2, n = 7) received MES just after CPAR learning. MES was induced using an electric shock generator from Harvard Apparatus (Holliston, MA, United States) consisting of a current (250 V, 120–122 20 mA, delivered for 0.1 s) by way of corneal electrodes. Rats of groups 3–14 received a single injection of POP inhibitor at doses of 0.5, 1, and 2 mg/kg, including BocTrpPrdN (groups 3–5, n = 7 in each), BocGlyPrdN (groups 6–8, n = 6 in each), CbzMetPrdN (groups 9–11, n = 8 in each), and CbzGlnPrdN (groups 12–14, n = 8 in each) 40 min prior to the CPAR learning (three groups of animals for each inhibitor) with following MES just after CPAR learning. Rats in group 15 (n = 8) received piracetam (300 mg/kg, i.p.) 50 min before the CPAR learning and MES just after CPAR learning.

POP = target: T2, POP (Rattus norvegicus, UniProt O70196); assay: POP activity in brain tissue homogenate after single i.p. administration; format: in vivo
T2 construct: from tissue; host or cells: brain homogenate of rats dosed i.p. with CbzMetPrdN
T2 sequence (O70196 1-710): T1 sequence (O70196 1-710)
Description: (§2) The total drug concentrations for CbzMetPrdN and POP activity in the brain were determined as a function of time at 0, 20, 40, 60, 80, and 120 min (n = 3 for each time-point) after a single 20 mg/kg intraperitoneal (i.p.) administration of CbzMetPrdN. The test animals were sacrificed, and their brains were harvested and immediately homogenized in phosphate buffer saline.
POP activity in the brain tissue homogenate was measured using Cbz-Ala-Pro-AMC, as described above, and is presented as nmole AMC released/min/mg of brain protein. Protein concentrations of the supernatants were determined with a Bio-Rad protein assay kit.

[4] = Tissue concentration of CbzMetPrdN in the brain after single i.p. administration; format: in vivo; conditions: single i.p. 20 mg/kg
Description: as §2
For measurement of the brain tissue concentration of CbzMetPrdN, the homogenate was mixed with an equal volume of methanol and centrifuged at 3,000 g for 10 min. The supernatant was concentrated to 2 ml, followed by solid phase extraction in a Retain AX SPE cartridge (Thermo Fisher Scientific). The cartridge was washed with 1 ml of 5% ammonia solution and then with 1 ml of methanol. The sample was eluted with 1 ml of 2% trifluoroacetic acid in methanol and analyzed using a Gilson 41 HPLC system (Gilson, United Kingdom) with a 125 × 4 mm Nucleosil C18 column (Macherey-Nagel). The column was washed for 3 min with 4 mM hexanesulfonate in water (pH 3.5), followed by a 0–100% gradient of 4 mM hexanesulfonate in acetonitrile:water (50:50) % (v/v) over 10 min. The concentration of the POP inhibitor is expressed in ng of CbzMetPrdN per mg of brain protein.

[5] = test system: dipeptidyl peptidase IV (DPP-4); design: method as in Ivanova et al., 2020; conditions: ref Ivanova et al., 2020; cited from earlier work
[6] = test system: MPTP-induced Parkinsonian syndrome; design: method as in earlier work; conditions: ref Khlebnikova et al., 2009b, Krupina et al., Khlebnikova et al., 2012, 2013a, 2013b, Kalinina et al., 2019; cited from earlier work

SMILES: N#C[C@@H]1CCCN1C(=O)[C@@H]1CCCN1C(=O)CCCc1ccccc1 [KYP-2047, (2S)-1-[[(2S)-1-(1-oxo-4-phenylbutyl)-2-pyrrolidinyl]carbonyl]-2-pyrrolidinecarbonitrile]
Brain penetration [1]: penetrates mouse and rat brains

SMILES: CN1[C@@H]2C[C@@H](OC(=O)[C@H](CO)c3ccccc3)C[C@H]1[C@@H]1O[C@@H]12 [scopolamine, reference compound]
Latency period (STL) in CPAR test ([2]; rat, scopolamine 1 mg/kg i.p. 20 min before learning, vehicle-treated rats 145.0 ± 21.7 s): 23.5 ± 9.6 s

SMILES: C[C@H](NC(=O)OCc1ccccc1)C(=O)N1CCC[C@H]1C#N [CbzAlaPrdN, N-benzoxycarbonyl-L-alanyl-(2S)-pyrrolidine-2-carbonitrile]
Antiamnesic effect, scopolamine-induced amnesia, all doses ([2]; rat, 0.5, 1 and 2 mg/kg i.p., scopolamine 1 mg/kg): not effective

IC50 [3]: ~2 nM and 2 nM
SMILES: N#C[C@@H]1CCCN1C(=O)[C@H](CCC(N)=O)NC(=O)OCc1ccccc1 [CbzGlnPrdN, N-Benzyloxycarbonyl-L-glutaminyl-(2S)-pyrrolidine-2-carbonitrile]
CPAR retention time, scopolamine-induced amnesia ([2]; rat, scopolamine 1 mg/kg): significantly prolonged CPAR retention time | Antiamnesic activity, MES-induced amnesia, 1 mg/kg (MES-induced amnesia): potent antiamnesic activity

SMILES: CC(C)(C)OC(=O)N[C@@H](Cc1c[nH]c2ccccc12)C(=O)N1CCC[C@H]1C#N [BocTrpPrdN, N-(tert-butoxycarbonyl)-L-tryptophanyl-(2S)-pyrrolidine-2-carbonitrile]
IC50 [3]: 9 ± 0.9 nM | Antiamnesic activity, scopolamine-induced amnesia (overall) ([2]; rat, 0.5-2 mg/kg i.p., scopolamine 1 mg/kg): clear tendency toward antiamnesic activity | Antiamnesic activity, MES-induced amnesia, 1 and 2 mg/kg (MES-induced amnesia): exhibited antiamnesic activity | Potency in comparison with piracetam, MES-induced amnesia (MES-induced amnesia): less potent

Inhibition of POP in the brain (POP; administered intraperitoneally): effectively inhibits POP in the brain | Time of maximal inhibition of brain POP activity (POP; single i.p. 20 mg/kg): 60 min | Time point with maximal concentration in the brain ([4]; rat): 60 min | Accumulation in rat brain tissue ([4]; 0-120 min): accumulated in the brain | IC50 [3]: 2.1 ± 0.6 nM
SMILES: CSCC[C@H](NC(=O)OCc1ccccc1)C(=O)N1CCC[C@H]1C#N [CbzMetPrdN, N-Benzyloxycarbonyl-L-methionyl-(2S)-pyrrolidine-2-carbonitrile]
CPAR retention time, scopolamine-induced amnesia ([2]; rat, scopolamine 1 mg/kg): significantly prolonged CPAR retention time | Inhibition of DPP-4 activity [5]: inhibited activity | Antiamnesic activity, MES-induced amnesia, 1 mg/kg (MES-induced amnesia): potent antiamnesic activity | Effect in preclinical model of Parkinsonian syndrome (MPTP) [6]: exhibited neuroprotective activity and abolished depressive symptoms

SMILES: CC(C)(C)OC(=O)NCC(=O)N1CCC[C@H]1C#N [BocGlyPrdN, N-(tert-butoxycarbonyl)glycyl-(2S)-pyrrolidine-2-carbonitrile]
IC50 [3]: 12 ± 3 nM | CPAR retention time, scopolamine-induced amnesia ([2]; rat, scopolamine 1 mg/kg): significantly prolonged CPAR retention time | Antiamnesic activity, MES-induced amnesia, 1 and 2 mg/kg (MES-induced amnesia): exhibited antiamnesic activity | Potency in comparison with piracetam, MES-induced amnesia (MES-induced amnesia): less potent
